# In article PMC11167047 (Cell Death Discovery, 2024):
# pIC50: −log10 of the molar value. Like-named read-outs stand apart in the source and are kept apart here.
# Assays:
# Type in all cases: cell-based, human
# [1] = test system: RNA polymerase II phosphorylation at Ser2; test: immunoblotting of p-Ser2 RNA polymerase II in Ramos cells; details: 0.1 and 1 µM (R547 1 µM), 4-24 h
# Experimental: Cells were seeded at a density of 2 × 10^6 cells, treated as specified and harvested by centrifugation at 3000 rpm for 5 min, followed by freezing in liquid nitrogen. The cell pellets were thawed on ice and quick-frozen and defrozen in liquid nitrogen for three times, then lysed on ice in lysis buffer (20 mM Tris-HCl, 150 mM NaCl, 1% v/v Triton X-100, 0.5 mM EDTA, 10 mM NaF, 2.5 mM Na4P2O7, protease inhibitor (Sigma, #P2714)) for 30 min, accompanied by vortexing. Subsequently, centrifugation 13,300 rpm for 15 min purified cell lysates from cell debris. The supernatant was transferred to a new tube and the protein concentration was determined by Bradford assay. The samples were diluted with sample buffer. SDS-Page and Western Blot were conducted in accordance with standard workflows. […] The antibody baths were stored at 4 °C and re-used.
# The density of the individual protein band was determined using Image Studio^TM Lite Version 5.2. The density of each protein was divided by the average of all bands of this protein. The ratios of the protein of interest were normalized to the ratio of the respective loading control. To determine the fold change, each normalized ratio was divided by the normalized band of the control line (untreated cells). Fold change is 1 for the control line, n ≥ 2. The results are shown as mean ± standard deviation and were visualized with GraphPad Prism 7.
# Ramos = test: AlamarBlue viability assay; details: cytotoxicity, 24 h, read-out: IC50 (Ramos)
# Experimental: The resazurin reduction assay, which is also known as AlamarBlue® assay, was used for the determination of cell viability in all cytotoxicity determinations shown in the present work, as previously described [22]. Briefly, cells were seeded at a specific density depending on the incubation time (24 h: 1 × 10^6 cells/ml) in a 96-well plate and incubated with increasing compound concentrations (0.01–30 µM). After the specified treatment time, resazurin (Sigma, #R7017) was added to a final concentration of 40 µM. […] The viability of control cells was set to 100% and all other values were normalized to the control condition, the dose-response curves were then fitted with Prism v7.01 (GraphPad software, La Jolla, CA, USA). The reduction of resazurin to resorufin is proportional to aerobic respiration; therefore, it is used as a measure for the cell viability and cytotoxicity of a tested compound.
# [2] = test system: retinoblastoma (RB) protein phosphorylation; test: immunopurification of RB from Ramos cells
# Experimental: For immunopurification (IP) the Dynabeads^TM Protein G Immunoprecipitation kit from Invitrogen (#10007D) was used. For IP, 2 × 10^6 cells were seeded in a 24-well plate and treated with the appropriate compound. After incubation, cells were lysed with NP-40 containing lysis buffer (Hepes-NaOH 50 mM pH 7.5, NaCl 150 mM, NP-40 1% v/v, MgCl2 2.5 mM, 1x Protease inhibitor (cOmplete^TM, EDTA-free Protease Inhibitor Cocktail), 1x Phosphatase Inhibitor (PhosSTOP^TM)) for 30 min. A protein content of 50 µg per IP was used, the protein concentration was measured by Bradford assay (Bio-Rad #5000006) with the photometer. Protein G is conjugated to the magnetic Dynabeads^TM. In the first step, the Dynabeads^TM were incubated for 10 min with the specific RB antibody (Abcam #ab181616; rabbit), which was used in a dilution of 1:80. The antibody bound to the conjugated protein G and a bead-antibody complex was formed. By placing the tube on a magnet, the beads were easily separated from the solution and the supernatant could be removed. The bead-antibody complex was washed once with Ab binding and washing buffer. In the second step, the cell lysate was incubated for 10 min with the bead-antibody complex to allow the RB protein from the lysate to bind to the antibody. The bead complex was washed several times with washing buffer by placing the tube on the magnet and removing the supernatant. […]
Structure (SMILES),phosphorylation of RNA polymerase II at Ser2 [1],pIC50 (Ramos; as given in text),pIC50 (Ramos; listed as Meriolin 16),pIC50 (Ramos),"phosphorylation of RB at p-Ser612 and p-Thr821 (immunopurified RB) ([2]; 1 µM, 4 h)",phosphorylation of RB at p-Ser612 and p-Thr821 (immunopurified RB) ([2]; 24 h)
COc1ccnc2[nH]cc(-c3cc(N)nc(N)c3)c12 [meriolin 16],total loss of the phosphorylation at Ser2 within 4 h,7.52 to 7.70,7.70,7.52,less phosphorylated,completely abrogated
c1ccc(CNc2cc(-c3c[nH]c4ncccc34)ccn2)cc1 [meriolin 36],less pronounced,–,–,–,–,–
